What was measured:
[1] = test system: melanocytes and keratinocytes of tissue samples taken from the stomach tissue of a person; assay: Ex vivo study on the promotion of melanogenesis: histological analysis, melanin visualisation; assay type: cell-based, human; conditions: for activity of the melanocytes / melanin content in basal keratinocytes / melanin content in suprabasal keratinocytes / melanin in basal keratinocytes: treatment for 10 days
Protocol: (§1) The tissue samples having a diameter of 10 mm are taken from the stomach tissue of a person and stored in BEM medium at 37° C. in a moist atmosphere having a CO2 content of 5%. The tissue samples are employed in accordance with the following test plan:
(§2) 30 μl of test solution are placed on a filter paper and immediately laid on the tissue sample.
(§3) The irradiations are carried out daily before treatment of the tissue samples with test solutions. An RMX 3W Vilbert Lourmat instrument is used. The UV dose is 1.04 J/cm2 comprising 6/8% of UVB.
On the first day (D0), 3 untreated tissue samples are halved, and in each case one half is fixed in buffered formalin solution. The respective other halves are frozen at −80° C.
After fixing for 24 hours in buffered formalin solution, the samples are dehydrated in a Leica TP1010 automatic dryer and impregnated with paraffin. After embedding with the aid of a Leica EG1160 station, 5 μm thin cross sections are produced from the samples using a Leica RM 2125 Minot-type microtome.
The cross sections are mounted on Superfrost Plus specimen slides made from silanised glass. The light-microscopy analysis is carried out by means of a Leica Orthoplan microscope with 25-times magnification in order to assess the general morphology or 40-times magnification in order to visualise the melanin.
The melanin visualisation is carried out after impregnation of the paraffinised cross-sections with silver in accordance with Masson in the Fontana variant.

[2] = test system: tissue samples taken from the stomach tissue of a person; assay: Ex vivo study on the promotion of melanogenesis: chromatometry of tissue samples; assay type: cell-based, human; conditions: for % L: D10 versus D0
Protocol: as §1, §2, §3
The colour coordinates of the tissue samples are determined by means of a Minolta CM 2600d chromatometer.

[3] = with UV irradiation, after 10 days
[4] = without UV irradiation, after 10 days

Row | SMILES | activity of the melanocytes ([1]; with UV irradiation) | melanin content in basal keratinocytes ([1]; with UV irradiation) | melanin content in suprabasal keratinocytes ([1]; with UV irradiation) | activity of the melanocytes ([1]; without UV irradiation) | melanin content in suprabasal keratinocytes ([1]; without UV irradiation) | melanin in basal keratinocytes ([1]; without UV irradiation) | tanning activity in the ex vivo experiment [2] | activity indicated by chromatometric analysis ([2]; with UV irradiation) | L ([2]; with UV irradiation, D0) | L ([2]; with UV irradiation, D10) | % L ([2]; with UV irradiation) | change in the L parameter (in words) [2, 3] | activity indicated by chromatometric analysis ([2]; without UV irradiation) | L ([2]; without UV irradiation, D0) | L ([2]; without UV irradiation, D10) | % L ([2]; without UV irradiation) | increase in the L parameter [2, 4] | increase of the area of the basal layer occupied by melanin ([1]; without UV irradiation, compared with the untreated control) | light/dark parameter L drops by [2, 3] | decrease in the L parameter [2, 4]
1 | CC(=O)c1cc(O)c2c(=O)cc(C)oc2c1 [5-hydroxy-7-acetyl-2-methylchromen-4-one] | low activity | moderate | low | very low activity | low | moderate | no tanning activity | skin-lightening activity | 63.66 | 64.87 | 1.9% | increase in the L parameter | skin-lightening activity | 62.19 | 63.98 | 2.9% | 2.9% |  |  | 
2 | CCCCCCCCCCCCCCCC(=O)Oc1cc(O)c2c(=O)cc(C)oc2c1 [compound Ia, 5-hydroxy-2-methyl-4-oxo-4H-chromen-7-yl hexadecanoate] | high degree of activity | high | moderate | very high activity | moderate | readily detectable |  | clear pro-pigmenting activity | 64.07 | 61.52 | −4% |  | pro-pigmenting activity | 64.53 | 61.24 | −5.1% |  | 43% | 4.0% | 5.1%
3 | COc1cc(O)c2c(=O)cc(C)oc2c1 [5-hydroxy-7-methoxy-2-methylchromen-4-one] | very low activity | moderate | low | very low activity | low | moderate |  | skin-lightening activity | 63.63 | 64.60 | 1.5% | increase in the L parameter | skin-lightening activity | 61.50 | 64.64 | 5.1% |  |  |  | 

— patent publication US9382224B2, “7-acyloxychromen-4-one derivatives and the use thereof as self-tanning substances” (MERCK PATENT GMBH, priority 2011, dated 2016)
